Laboratory results as given in patent US9120249B2, “Implant device release agents and methods of using same” (ENDO PHARMACEUTICALS SOLUTIONS INC., priority 2007, dated 2015).
One block for each molecule: values may come before it.

How the values were obtained:
[1] = Tensile strength of gamma irradiated cartridges, initially and after storage at 37° C.; type: physicochemical; settings: initially after irradiation and after 3 and 8 months storage at 37° C.
Description: Approximately 15-20 cartridges of each formulation were prepared and gamma irradiated at 10-11 kGy. The tensile strength of five cartridges from each formulation was measured initially. The remaining cartridges were stored at 37° C. and tested for tensile strength again at 3 and 8 months.

[2] = cited from earlier work; for CMC: critical micelle concentration; for HLB: hydrophilic-lipophilic balance

- tensile strength of cartridges, in words [1]: seems to be effective as well
Molecule: O=C1O[C@H]([C@@H](O)CO)C(O)=C1O [Ascorbic acid, ascorbic acid]

Molecule: CCCCCCCC/C=C\CCCCCCCC(=O)OCCOCC(OCCO)C1OCC(OCCO)C1OCCO (stereo not shown) [Tween 80]
- CMC [2]: 0.012 mM
- HLB [2]: 15

Molecule: Sucrose monolaurate
- CMC [2]: 0.2 mM
- HLB [2]: ~8

Molecule: Triton X-100
- CMC [2]: 0.2 to 0.9 mM
- HLB [2]: 13.5
